What was measured:
[1] = system: Fusarium graminearum (FGR; isolate 73B ISU); assay type: cell-based; details: for IC50 (ppm) High Salt Fgr: high salt: 1/2x liquid media plus 1 mM calcium chloride, 50 mM potassium chloride; for IC50 (ppm) Low Salt Fgr: low salt: 1/8x potato dextrose broth plus 0.25 mM calcium chloride, 12.5 mM potassium chloride
[2] = system: Fusarium verticillioides (FVE); assay type: cell-based
[3] = system: Diplodia maydis (DMA); assay type: cell-based; details: for IC50 (ppm) High Salt Dma: high salt: 1/2x liquid media plus 1 mM calcium chloride, 50 mM potassium chloride
[4] = system: C. graminicola; assay: Invasion of leaf sheaths of transgenic maize by C. graminicola; assay type: in vivo, Colletotrichum graminicola; details: greenhouse, T0 V5-stage maize
Procedure: The leaf sheaths of leaf 4 or 5 of T0 plants at the V5 stage were inoculated with 50 μL of 5×10^6 spores/mL after wounding the leaf sheath on both sides of the midrib about half way between edge and midrib with a small screwdriver. The leaf sheath was covered with plastic wrap for 5 days. Nine days after inoculation the area of lesions was measured.

[5] = system: Colletotrichum graminicola (CGR; isolate Carroll-IA-99); assay type: cell-based; details: for Antifungal activity (IC50 in ppm) against C. graminicola under high salt conditions: Table 2; for IC50 (ppm) High Salt Cgr: high salt: 1/2x liquid media plus 1 mM calcium chloride, 50 mM potassium chloride, Table 1; for IC50 (ppm) Low Salt Cgr: low salt: 1/8x Czapek-Dox broth plus 0.25 mM calcium chloride, 12.5 mM potassium chloride

Substance: Pp-PDF1-1C-7A4: Pp-PDF1 variant from first shuffling round (RVCEKPSKFFKGLCGSDRDCTNACRKEGLATGECQSKGFFNSVCVCKKPC; Synthetic sequence obtained from DNA shuffling of a plant sequence.)
- IC50 (ppm) High Salt Fgr [1]: 20 ppm
- IC50 (ppm) Low Salt Fgr [1]: 4.7 ppm
- IC50 (ppm) High Salt Fve [2]: >200 ppm
- IC50 (ppm) High Salt Dma [3]: 50 ppm
- relation of protein level to disease development ([4]; leaf sheath invasion by CGR): correlated inversely with disease development
- invasion of leaf sheaths by CGR compared to empty vector controls ([4]; protein accumulated in endoplasmic reticulum, two transformation constructs): significantly improved events
- Antifungal activity (IC50 in ppm) against C. graminicola under high salt conditions [5]: 5 ppm
- IC50 (ppm) High Salt Cgr [5]: 5 ppm
- IC50 (ppm) Low Salt Cgr [5]: 0.1 ppm

Substance: Pp-PDF1-4CB-6E6: Pp-PDF1 variant from fourth shuffling round (RVCTKPSKFYKGLCISDRDCTNACRKEGLPIGFCKSKGFFNSVCVCRKPC; Synthetic sequence obtained from DNA shuffling of a plant sequence.)
- IC50 (ppm) High Salt Fgr [1]: 150 ppm
- IC50 (ppm) High Salt Fve [2]: >200 ppm
- IC50 (ppm) High Salt Dma [3]: 100 ppm
- IC50 (ppm) High Salt Cgr [5]: 0.25 ppm
- IC50 (ppm) Low Salt Cgr [5]: 0.25 ppm

Substance: Pp-PDF1-4CB-6E9: Pp-PDF1 variant from fourth shuffling round (RVCTKPSKFFKGLCISDRQCTNACRKEGLPTGECQPKGFFNSVCVCRKPC; Synthetic sequence obtained from DNA shuffling of a plant sequence.)
- IC50 (ppm) High Salt Fgr [1]: 150 ppm
- IC50 (ppm) High Salt Fve [2]: >200 ppm
- IC50 (ppm) High Salt Dma [3]: 100 ppm
- IC50 (ppm) High Salt Cgr [5]: 0.25 ppm
- IC50 (ppm) Low Salt Cgr [5]: 0.4 ppm

Substance: Pp-PDF1-4CB-12G9: Pp-PDF1 variant from fourth shuffling round (RVCTKPSKFFRGLCVSDRQCTNACRKEGLPIGECQSKGFFNSVCVCRKPC; Synthetic sequence obtained from DNA shuffling of a plant sequence.)
- IC50 (ppm) High Salt Fgr [1]: 50 ppm
- IC50 (ppm) High Salt Fve [2]: >200 ppm
- IC50 (ppm) High Salt Dma [3]: 25 ppm
- IC50 (ppm) High Salt Cgr [5]: 0.25 ppm
- IC50 (ppm) Low Salt Cgr [5]: 0.25 ppm

Substance: Pp-PDF1: Picramnia pentandra plant defensin, parent polypeptide used in the DNA shuffling (KVCTKPSKFFKGLCGADRDCTVACKKEGLATGFCQKKGFFNFVCVCRKPC; listed as Picramnia pentandra) [reference compound]
- IC50 (ppm) High Salt Fgr [1]: 5 ppm
- IC50 (ppm) Low Salt Fgr [1]: 2 ppm
- IC50 (ppm) High Salt Fve [2]: 50 ppm
- IC50 (ppm) Low Salt Fve [2]: 2 ppm
- IC50 (ppm) High Salt Dma [3]: 50 ppm
- IC50 (ppm) Low Salt Dma ([3]; low salt: 1/8x potato dextrose broth plus 0.25 mM calcium chloride, 12.5 mM potassium chloride): 7.5 ppm
- Antifungal activity (IC50 in ppm) against C. graminicola under high salt conditions [5]: 15 ppm
- IC50 (ppm) High Salt Cgr [5]: 15 ppm
- IC50 (ppm) Low Salt Cgr [5]: 3 ppm
